Assay: Human HepG2 cell viability assay in 384 well format
Format: toxicity, cell-based
Parameters: dose 125 nL, time 70.5 hour; cytotoxicity at 70.5 h: concentration not given beside the values
Details: HepG2 cells, read-out: Inhibition

Row | Compound | cytotoxicity at 70.5 h
1 | CCOC(=O)c1cnn(-c2cc(Oc3ccccc3)ncn2)c1N | 3.77%
2 | O=C(CN1CCCC1)Nc1c2c(cc3c1CCC3)CCC2 | -4.72%
3 | CNC(C)Cc1ccccc1Sc1ccc(O)cc1 (configuration not stated) | -8.32%
4 | CCOC(=O)c1cnn(-c2cc(Oc3ccccc3C)ncn2)c1N | 23.9%
5 | COc1cccc2c3c(c(=O)[nH]c12)CC(C)(C)O3 | -6.98%
6 | Cc1cccc(N2CC[C@@H]3[C@@H](CO[C@H]3CNC(=O)c3ccco3)C2)n1 | -0.126%
7 | O=C(NCc1ccccc1)N1C[C@H]2C[C@H](C(=O)N3CCCC3)[C@@H](C1)O2 | -5.41%
8 | CC(C)C(=O)N1CCC12CCCN(C(=O)c1ccccc1)C2 (configuration not stated) | -2.99%
9 | CC(C)CNC(=O)c1nc2c(s1)CCN(C(=O)c1cccnc1)CC2 | -4.69%
10 | O=C(C1CCC2(CCN(c3ncccn3)CC2)CO1)N1CCCC1 (configuration not stated) | -5.27%
11 | O=C(NCCc1ccccc1)N1C[C@H]2C[C@H](C(=O)N3CCCC3)[C@@H](C1)O2 | 0.399%
12 | Cn1cnc(S(=O)(=O)N2CCO[C@H]3[C@H](OCC4CC4)CC[C@@H]32)c1 | -2.37%
13 | CCS(=O)(=O)N1CCCC2(COCCN(c3nncs3)C2)C1 (configuration not stated) | -2.49%
14 | Cc1cnc(C(=O)N2CCC3(CC2)C(=O)NCCN3CC(C)C)cn1 | -2.5%
15 | COc1cc(C2CC(=O)Nc3c2c(=O)[nH]n3C2CCCC2)ccc1O (configuration not stated) | -2.72%
16 | O=C1CCCN1Cc1noc(-c2ccc(Cl)cc2)n1 | -6.78%
17 | CCc1ccc(NC(=O)CC2Cn3ncnc3NC2=O)cc1 (configuration not stated) | -16.3%
18 | CCOc1ccc(NC(=O)c2cc3c([nH]c2=O)CCC3)cc1 | -13.3%
19 | Cc1ccc(NC(=O)CC2Cn3ncnc3NC2=O)cc1C (configuration not stated) | -8.36%
20 | CCOCCCNC(=O)CN(c1cc(C)cc(C)c1)S(C)(=O)=O | -14.2%
21 | CC(C)n1c(=O)c2sccc2n(CC(=O)Nc2ccccc2)c1=O | -11%
22 | Cc1n[nH]c2c1C(c1ccc3c(c1)OCO3)SCC(=O)N2 (configuration not stated) | 25.4%
23 | CC(C)CN1CCn2c(nc3cc(C(=O)NC(C)C)ccc32)C1 | -11.8%

Row | Compound | cytotoxicity at 70.5 h
24 | CCOc1ccc(C2SCC(=O)Nc3c2c(=O)[nH]n3C(CC)CC)cc1 (configuration not stated) | -6.79%
25 | O=C(Cc1csc(-c2ccccc2)n1)N[C@@H](C(=O)O)c1ccccc1 | -9.17%
26 | CSC1=Nc2c(cnn2-c2ccc(C)cc2)C2=NCCCN12 | -10.1%
27 | CSC1=Nc2c(cnn2-c2ccccc2)C2=NCCCN12 | -8.98%
28 | CC(C)C(NC(=O)Cn1nc2c(cc1=O)CCCC2)C(=O)O (configuration not stated) | -13.5%
29 | O=C(Cn1nc2c(cc1=O)CCCC2)NC(C(=O)O)c1ccccc1 (configuration not stated) | -12.2%
30 | CC1=Nc2c(c(O)nn2C(C)C)C(c2cn(C)nc2C)S1 (configuration not stated) | 21%
31 | Cc1ccc(-c2[nH][nH]c(=O)c2CCN)cc1 | -14.2%
32 | Cc1ccc(-c2[nH]c3ccccc3c2C(=O)O)c(C)c1 | -4.63%
33 | Cc1cccc(NC(=O)c2csc(NCC(C)C)n2)n1 | -14.8%
34 | O=C(CSC1CCc2ccccc2NC1=O)Nc1ccc(CCO)cc1 (configuration not stated) | -1.18%
35 | O=C(O)C1CCN(C(=O)Cn2ccc3c(Cl)cccc32)CC1 | -12.6%
36 | CC(=O)N1CCN(C(=O)Cn2ccc3c(Cl)cccc32)CC1 | -16.8%
37 | CC(C)OCCCNC(=O)C1CCCN(c2ccc3nncn3n2)C1 (configuration not stated) | -9.82%
38 | O=C(O)CSC1CCc2ccccc2NC1=O (configuration not stated) | -14.7%
39 | CC(C)n1[nH]c(=O)c2c1NC(=O)CC2c1cccc(O)c1 (configuration not stated) | -9.65%
40 | O=C1CC(c2ccccc2)c2sc(C(=O)O)c(-c3ccccc3)c2N1 (configuration not stated) | -8.23%
41 | COc1ccc(NC(=O)Cn2cc(-c3ccccc3)ncc2=O)cn1 | -6.77%
42 | O=C(Cn1cc(-c2ccccc2)ncc1=O)Nc1nccs1 | 7.52%
43 | O=C(Cn1c(=O)nc2n1C(=O)N(c1ccccc1)C2)NC1CCCCC1 | -7.65%
44 | CCOC(=O)N1CCN(C(=O)c2sc(-c3ccncc3)nc2C)CC1 | 23.5%
45 | CC(C)NC(=O)Cn1cc(-c2ccccc2)ncc1=O | -7.17%
46 | CCNS(=O)(=O)c1cnccc1N1CCN(CCO)CC1 | 4.82%

Row | Compound | cytotoxicity at 70.5 h
47 | NC(=O)CSc1nnc2n1N=CN(c1ccccc1F)C2 | -6.75%
48 | O=c1c2cn[nH]c2nc(SCCN2CCOCC2)n1-c1ccccc1 | -7.75%
49 | O=S(=O)(Cc1ccc(Br)cc1)NCCO | -0.457%
50 | Cc1nn(S(=O)(=O)c2ccc(Cl)cc2)c(C)c1C | 38.4%
51 | CC(=O)c1c(C)nn(S(=O)(=O)c2ccccc2)c1C | 3.79%
52 | CCOC1Sc2nnc(C)n2N=C1c1ccc(Cl)cc1 (configuration not stated) | -8.8%
53 | CCc1nn(-c2cc(Oc3ccccc3)nc(C)n2)c(N)c1C#N | 2.22%
54 | Cc1ccccc1S(=O)(=O)N(C)[C@@H]1CC[C@@H](n2ccnc2C)[C@@H]1O | 53.4%
55 | Cc1noc(C)c1CC(=O)N[C@@H]1CC[C@@H](Oc2ccccc2)[C@@H]1O | -3.35%
56 | Cc1nccn1-c1nccnc1C1CCCN(C)C1 (configuration not stated) | -4.67%
57 | CNc1ccc(C2CN(c3cc(C)ncn3)CCO2)nc1 (configuration not stated) | 1.5%
58 | Cc1ccnc(C2CCN(CCCOc3ccccc3F)C2)n1 (configuration not stated) | -1.63%
59 | Cc1cc(-c2ccnn2C)nc(C2CCN(S(C)(=O)=O)CC2)n1 | -4.75%
60 | Cc1ccccc1CC(=O)NCc1cnc(CC2CCN(C)CC2)cn1 | -4.57%
61 | CN([C@@H]1CC[C@@H](N2CCCC2)[C@@H]1O)S(=O)(=O)c1ccccc1 | 24.7%
62 | O=S(=O)(c1cn[nH]c1)N1CCC(O)(CN2CCOCC2)C1 (configuration not stated) | 4.95%
63 | CCC(=O)N1CCC(c2ncc(C(=O)Nc3ccccc3)c(C)n2)C1 (configuration not stated) | -3.38%
64 | O=C(c1ccncc1)N1CCCC(C2=Nc3ccccc3S(=O)(=O)N2)C1 (configuration not stated) | -3.07%
65 | CN1CCCC(c2cccc(-c3ccccc3F)n2)C1 (configuration not stated) | -2.39%
66 | CN(C)c1ccc(C(=O)N2CCC(c3cc4cnccc4[nH]3)CC2)cc1 | -0.667%
67 | CC(=O)N1CCC1c1nc(-c2ccc(C)s2)no1 (configuration not stated) | 23.5%
68 | Cn1ccc(C(=O)N2CCCC2c2cc(CO)[nH]n2)n1 (configuration not stated) | -2.72%
69 | Cc1cc(NC(=O)CN2CCN(C3CCCC3)C(=O)C2)nn1C | -4.01%

Row | Compound | cytotoxicity at 70.5 h
70 | Cc1noc(C)c1C(=O)N[C@@H]1CC[C@@H](Oc2ccccc2)[C@@H]1O | -2.95%
71 | OCc1cc(C2CCCN2c2ncccn2)n[nH]1 (configuration not stated) | 0.468%
72 | Fc1ccccc1-c1cccc(C2CCCN(C3CCOCC3)C2)n1 (configuration not stated) | -7.34%
73 | COc1ccc(C2CN(c3nc(C)cc(C)n3)CCN2C(C)=O)cc1 (configuration not stated) | -4.4%
74 | CCc1c(C)nn2c(O)cc(C3CCN(C(=O)C4CC4)C3)nc12 (configuration not stated) | -6%
75 | CCNC(=O)[C@H]1CN(Cc2ccccc2)C[C@@H]1C(=O)c1ccccc1 | -12.3%
76 | O=C(c1cc(C2CC2)on1)N1C[C@H]2CC[C@](O)(c3ccccc3F)[C@H]2C1 | -0.256%
77 | CN(C)Cc1cccc(-c2cccnc2C(=O)NCc2ccccn2)c1 | -3.29%
78 | CN([C@@H]1CC[C@@H](N2CCOCC2)[C@@H]1O)S(=O)(=O)c1ccccc1 | -10.3%
79 | CC1(c2nccs2)CCN(C(=O)CC2CCOCC2)CC1 | -9.57%
80 | Nc1cc(-c2c[nH]nc2C2CCN(C(=O)C3CCCC3)C2)ccn1 (configuration not stated) | 5.65%
81 | c1cnc(N2CCCC(Cc3nccs3)C2)nc1 (configuration not stated) | -3.8%
82 | CS(=O)(=O)N1CCCCC1c1ccc(Nc2cnccn2)nc1 (configuration not stated) | -7.53%
83 | Cc1cc(C(F)F)nn1CC(=O)NCc1nccn1C | -3.8%
84 | CNC(=O)C1CN(C(=O)Cc2ccc(OC)cc2)Cc2cn(C)nc21 (configuration not stated) | -7.07%
85 | CCCC(=O)NCCc1cc(NC)nc(-c2ccccn2)n1 | 20.8%
86 | CNC(=O)C1CCCN(C(=O)c2cncs2)C1 (configuration not stated) | -9.62%
87 | CN1CCN(C(=O)CCn2ncc3ccccc32)CC(C(N)=O)C1 (configuration not stated) | -6.19%
88 | CN(C)c1nccnc1C1CCN(C(=O)C2(C)CCCCN2C)CC1 (configuration not stated) | -5.33%
89 | Cc1cncc(C2CCN(Cc3ccc(S(C)(=O)=O)cc3)CC2)n1 | -9.92%
90 | O=C(CC1CC1)N1C[C@@H](O)[C@H](N2CCN(c3ccccc3)CC2)C1 | 22.4%
91 | CC(C)N1CC(c2ccnc(Nc3nccs3)n2)C1 | -10.4%
92 | Cc1cncc(C2CCN(Cc3cnc(C)nc3)CC2)n1 | -7.22%

Row | Compound | cytotoxicity at 70.5 h
93 | CC(C)Cn1nc(-c2ccc(C(=O)O)cc2)cc1-c1ccc(F)cc1 | -5.39%
94 | CC1(C)O[C@@](C)([C@H]2CC3(CCN(c4ncccn4)CC3)CO2)CC[C@@H]1O | -4.22%
95 | NC(=O)CN1C[C@@H](c2ccccc2F)[C@@]2(CCCCC(=O)N2)C1 | -7.09%
96 | Cc1nn(C)cc1C(=O)N1CCC(C(=O)c2nc3ccccc3s2)CC1 | -4.17%
97 | CN(C(=O)c1ccncc1)c1nnc(C2CCOC2)s1 (configuration not stated) | -5.28%
98 | Cc1nn(C)c(C)c1-c1ccc(=O)n(C(C)C(=O)NCc2ccco2)n1 (configuration not stated) | -7.42%
99 | CCc1c(C)nc2cc(-c3nccn3C)nn2c1N1CCCC(CO)C1 (configuration not stated) | 27.9%
100 | Cn1ccnc1C(O)c1ccccc1N1CCN(CC2CCCC2)CC1 (configuration not stated) | -3.89%
101 | O=C(CCN1CCCCC1)Nc1c2c(cc3c1CCC3)CCC2 | -1.77%
102 | CCN(CC)CCn1c(=O)oc2ccccc21 | -3.03%
103 | CCC(CO)NCc1ccc(-c2ccc(F)cc2)o1 (configuration not stated) | -2.16%
104 | CCC(CO)NCc1ccc(-c2ccccc2)o1 (configuration not stated) | 29.3%
105 | c1nn(C2CCCCC2)cc1-c1cncn1CCCN1CCCCC1 | -0.625%
106 | Cc1nc2cc(-c3nccn3C)nn2c(N2CCC(O)CC2)c1C | -3.32%
107 | NCCc1c(-c2ccccc2)[nH][nH]c1=O | -7.56%
108 | Cc1ccc(N2CC[C@@H]3CN(Cc4cc[nH]n4)C[C@@H]3C2)nn1 | -2.82%
109 | CN(C)CCOCc1ncn2c1CN(c1ncc(F)cn1)CCC2 | -3.65%
110 | COc1cc(CN(C)[C@@H]2COC[C@H]2c2ccc(F)cc2)cc(OC)c1 | 0.803%
111 | Cc1nc2sccn2c1CN(CCCN(C)C)Cc1ccco1 | -21.2%
112 | CC(N)Cc1ccccc1Sc1ccccc1 (configuration not stated) | -1.45%

Reference: ChEMBL document CHEMBL3507680, “University of Dundee, Gates Library screen for HepG2 cell viability”
